{"source": "patent US9029337B2", "about": "“Modulation of factor 7 expression” (Isis Pharmaceuticals, Inc., priority 2007, dated 2015)", "key": {"BALB/c mice": {"system": "BALB/c mice", "experiment": "Tail bleeding assay", "type": "in vivo, mouse", "method": "(§1) Mice not receiving treatment with FeCl3 solution were evaluated in a tail bleeding chamber. Mice were placed into the bleeding chamber two days after the final treatment of ISIS 403102 or PBS. Mice were anesthetized in the chamber with isofluorane and a small piece of tail (approximately 4 mm from the tip) was cut with sterile scissors. The cut tail was immediately placed in a 15 mL Falcon tube filled with approximately 10 mL of 0.9% NaCl buffer solution warmed to 37° C. The blood was collected over the course of 40 minutes. The saline filled tubes were weighed both before and after bleeding.\nTail-bleeding was measured to observe whether treatment with ISIS 403102 or warfarin causes internal hemorrhage in mice. ISIS 403102 and warfarin (Coumadin®) were evaluated in the tail bleeding assay. Six groups of BALB/c mice were treated with 1.25 mg/kg, 2.5 mg/kg, 5 mg/kg, 10 mg/kg, 20 mg/kg, or 40 mg/kg of ISIS 403102, administered subcutaneously twice a week for 3 weeks. An additional 6 groups of BALB/c mice were treated with 0.5 mg/kg, 1 mg/kg, 2 mg/kg, 3 mg/kg, 4 mg/kg, and 5 mg/kg of warfarin, administered intraperioneally daily for 6 days. A separate control group of BALB/c mice was treated with PBS, administered subcutaneously twice a week for 3 weeks.\nas §1, with “Two” for “Mice not receiving treatment with FeCl3 solution were evaluated in a tail bleeding chamber. Mice were placed into the bleeding chamber two”, “403102, warfarin,” for “403102”, “PBS, mice were placed in a tail bleeding chamber.” for “PBS.”\nISIS 403102 and Apixaban were evaluated in BALB/c mice. In a first group of BALB/c mice, 40 mg/kg of ISIS 403102 was administered subcutaneously twice a week for 3 weeks. An additional 3 groups of BALB/c mice were treated with 5 mg/kg and 10 mg/kg of Apixaban, administered in a single intraperitoneal dose, and 10 mg/kg of Apixaban administered as a single subcutaneous dose. A control group of BALB/c mice was treated with PBS, administered subcutaneously twice a week for 3 weeks.\nas §1, with “Two” for “Mice not receiving treatment with FeCl3 solution were evaluated in a tail bleeding chamber. Mice were placed into the bleeding chamber two”, “PBS, mice were placed in a tail bleeding chamber. Mice from the groups treated with Apixaban were analyzed 30 minutes after the single dose.” for “PBS.”, “weighed” for “weighed both”"}, "murine Factor 7 mRNA": {"system": "murine Factor 7 mRNA", "experiment": "Liver Factor 7 mRNA in the FeCl3 induced venous thrombosis model", "type": "in vivo, mouse", "settings": "Example 15", "method": "(§2) Three groups of BALB/c mice were injected with 25 mg/kg, 37.5 mg/kg, or 50 mg/kg of ISIS 403102, administered subcutaneously twice a week for 3 weeks. Two control groups of BALB/c mice were treated with PBS, administered subcutaneously twice a week for 3 weeks. Thrombus formation was induced with FeCl3 in half of the mice while the rest of the mice were assayed for tail bleeding. Two days after receiving the last dose of ISIS 403102 or PBS, mice were anesthetized with 150 mg/kg ketamine mixed with 10 mg/kg xylazine administered by intraperitoneal injection. Thrombus formation was induced with FeCl3 in all groups of the VT mice except the first control group.\n(§3) In mice undergoing FeCl3 treatment, thrombus formation was induced by applying a piece of filter paper (2×4 mm) pre-saturated with 10% FeCl3 solution directly on the vena cava. After 3 minutes of exposure, the filter paper was removed. Thirty minutes after the filter paper application, a fixed length of the vein containing the thrombus was dissected out for platelet analysis. Liver was collected for RNA analysis.\nRNA was extracted from liver tissue for real-time RT-PCR analysis of Factor 7. Results are presented as percent inhibition of Factor 7, relative to PBS control.\nISIS 403102 and warfarin (Coumadin®) were evaluated in BALB/c mice. Four groups of BALB/c mice were treated with 5 mg/kg, 10 mg/kg, 20 mg/kg, or 40 mg/kg of ISIS 403102, administered subcutaneously twice a week for 3 weeks. Two days after receiving the last dose of ISIS 403102, mice were anesthetized with 150 mg/kg ketamine mixed with 10 mg/kg xylazine administered by intraperitoneal injection. A fifth group of BALB/c mice was treated with 3 mg/kg of warfarin, administered intraperioneally daily for 6 days. Four hours after the last dose of warfarin, mice were sacrificed. A control group of BALB/c mice were treated with PBS, administered subcutaneously twice a week for 3 weeks. Two days after the last dose of PBS, mice were anesthetized with 150 mg/kg ketamine mixed with 10 mg/kg xylazine administered by intraperitoneal injection. Thrombus formation was induced with FeCl3 in groups of mice except the first control group."}, "platelet factor-4 (PF-4)": {"system": "platelet factor-4 (PF-4)", "experiment": "Thrombus formation by real-time RT-PCR quantification of PF-4 in the FeCl3 induced venous thrombosis model", "type": "in vivo, mouse", "settings": "Example 16; dose of 1 mg/kg and higher, intraperitoneally daily for 6 days", "method": "as §2, §3\n(§4) Real-time RT-PCR quantification of platelet factor-4 (PF-4) was used to quantify platelets in the vena cava as a measure of thrombus formation. Results are presented as a percentage of PF-4 in ISIS 403102, as compared to the two PBS-treated control groups. […] Therefore, antisense oligonucleotides are useful for inhibiting thrombus and clot formation.\nISIS 403102 and warfarin (Coumadin®) were evaluated in BALB/c mice. Four groups of BALB/c mice were treated with 5 mg/kg, 10 mg/kg, 20 mg/kg, or 40 mg/kg of ISIS 403102, administered subcutaneously twice a week for 3 weeks. Two days after receiving the last dose of ISIS 403102, mice were anesthetized with 150 mg/kg ketamine mixed with 10 mg/kg xylazine administered by intraperitoneal injection. Six additional groups of BALB/c mice was treated with 0.5 mg/kg, 1 mg/kg, 2 mg·kg, 3 mg/kg, 4 mg/kg, or 5 mg/kg of warfarin, administered intraperioneally daily for 6 days. Four hours after the last dose of warfarin, mice were sacrificed. A control group of BALB/c mice were treated with PBS, administered subcutaneously twice a week for 3 weeks. Two days after the last dose of PBS, mice were anesthetized with 150 mg/kg ketamine mixed with 10 mg/kg xylazine administered by intraperitoneal injection. Thrombus formation was induced with FeCl3 in groups of mice except the first control group.\nas §4, with “403102 or warfarin treated mice,” for “403102,”, “Therefore, ISIS” for “Therefore,”"}, "human Factor 7 mRNA [1]": {"system": "human Factor 7 mRNA", "experiment": "Antisense inhibition of human Factor 7 mRNA in HepB3 cells, 50 nM antisense oligonucleotide, lipofectin", "type": "cell-based", "settings": "gapmers targeted to nucleobases 4868 to 4899 of SEQ ID NO: 1, Table 8", "outline": "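After transfection of wells containing 4,000 cells, treatment ran for approximately 24 h. RIBOGREEN®-measured total RNA served for normalisation, and inhibition was calculated as a percentage of untreated control.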"}, "human Factor 7 mRNA [2]": {"system": "human Factor 7 mRNA", "experiment": "Dose-dependent antisense inhibition of human Factor 7 in HepB3 cells, electroporation", "type": "cell-based", "settings": "approx. 16 hours (Table 15, Example 7)", "outline": "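HepB3 cells, 20,000/well, electroporated with gapmers at 3.125–100 μM; about 16 h treatment. Factor 7 mRNA by qRT-PCR with primer probe set RTS 2927, normalized to RIBOGREEN total RNA; percent inhibition versus untreated cells.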"}, "human Factor 7 mRNA [3]": {"system": "human Factor 7 mRNA", "experiment": "Dose-dependent antisense inhibition of human Factor 7 in HepB3 cells, lipofectin", "type": "cell-based", "settings": "HepB3 cells, approx. 16 hours (Table 14)", "outline": "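HepB3 cells (4,000/well) lipofectin-transfected with antisense oligonucleotide at 3.125 or 6.25 up to 100 nM for ~16 h. Factor 7 mRNA measured by real-time RT-PCR with primer probe set RTS 2927, adjusted to RIBOGREEN total RNA; expressed as percent inhibition versus untreated control cells.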"}}, "note": "Strand notation (5' to 3'): a small letter for the sugar, then the base; units joined by * are phosphorothioate-linked, units joined directly phosphodiester-linked; [ ] holds rarer units or linkages, { } end groups; capitals alone tell only the bases. e = 2'-O-(2-methoxyethyl) (MOE); [5mC] = 5-methylcytosine; d = 2'-deoxy (DNA)", "data": [{"compound": "COc1ccc(-n2nc(C(N)=O)c3c2C(=O)N(c2ccc(N4CCCCC4=O)cc2)CC3)cc1", "note": "[apixaban, Apixaban]", "values": [{"measurement": "Blood (g), tail bleeding", "setting": "BALB/c mice; BALB/c, mouse, in vivo, ip, 5 mg/kg, 30 min", "result": 0.22, "unit": "g"}, {"measurement": "Blood (g), tail bleeding", "setting": "BALB/c mice; BALB/c, mouse, in vivo, ip, 10 mg/kg, 30 min", "result": 0.58, "unit": "g"}, {"measurement": "Blood (g), tail bleeding", "setting": "BALB/c mice; BALB/c, mouse, in vivo, sc, 10 mg/kg, 30 min", "result": 0.04, "unit": "g"}, {"measurement": "bleeding compared to PBS treated mice", "setting": "BALB/c mice; mouse, in vivo, ip, 5 mg/kg", "result": "same amount of bleeding as PBS treated mice"}, {"measurement": "bleeding compared to PBS treated mice", "setting": "BALB/c mice; mouse, in vivo, ip, 10 mg/kg", "result": "increased bleeding"}, {"measurement": "bleeding compared to PBS treated mice", "setting": "BALB/c mice; mouse, in vivo, sc, 10 mg/kg", "result": "less bleeding than PBS mice"}]}, {"compound": "403102 (antisense CCATAGAACAGCTTCACAGG; chemistry not given here) [compound 403102]", "values": [{"measurement": "Blood (g), tail bleeding", "setting": "BALB/c mice; mouse, in vivo, sc, 25 mg/kg", "result": 0.06, "unit": "g"}, {"measurement": "Blood (g), tail bleeding", "setting": "BALB/c mice; mouse, in vivo, sc, 37.5 mg/kg", "result": 0.06, "unit": "g"}, {"measurement": "Blood (g), tail bleeding", "setting": "BALB/c mice; mouse, in vivo, sc, 50 mg/kg", "result": 0.10, "unit": "g"}]}, {"compound": "CC(=O)CC(c1ccccc1)c1c(O)c2ccccc2oc1=O", "note": "(centres unmarked) [warfarin]", "values": [{"measurement": "bleeding as compared to PBS control mice", "setting": "BALB/c mice; Example 17, 0.5-5 mg/kg intraperitoneally daily for 6 days", "result": "did increase bleeding"}, {"measurement": "Blood (g), tail bleeding", "setting": "BALB/c mice; Example 17, BALB/c mice, 0.5 mg/kg i.p. daily for 6 days, blood collected over 40 minutes", "result": 0.16, "unit": "g"}, {"measurement": "Blood (g), tail bleeding", "setting": "BALB/c mice; Example 17, BALB/c mice, 1 mg/kg i.p. daily for 6 days, blood collected over 40 minutes", "result": 0.28, "unit": "g"}, {"measurement": "Blood (g), tail bleeding", "setting": "BALB/c mice; Example 17, BALB/c mice, 2 mg/kg i.p. daily for 6 days, blood collected over 40 minutes", "result": 0.58, "unit": "g"}, {"measurement": "Blood (g), tail bleeding", "setting": "BALB/c mice; Example 17, BALB/c mice, 3 mg/kg i.p. daily for 6 days, blood collected over 40 minutes", "result": 0.78, "unit": "g"}, {"measurement": "Blood (g), tail bleeding", "setting": "BALB/c mice; Example 17, BALB/c mice, 4 mg/kg i.p. daily for 6 days, blood collected over 40 minutes", "result": 0.66, "unit": "g"}, {"measurement": "Blood (g), tail bleeding", "setting": "BALB/c mice; Example 17, BALB/c mice, 5 mg/kg i.p. daily for 6 days, blood collected over 40 minutes", "result": 0.93, "unit": "g"}, {"measurement": "reduction of Factor 7 mRNA as compared to the PBS control", "setting": "murine Factor 7 mRNA; 3 mg/kg intraperitoneally daily for 6 days", "result": "did not result in significant reduction of Factor 7"}, {"measurement": "% inhibition of Factor 7 mRNA, relative to PBS control", "setting": "murine Factor 7 mRNA; BALB/c mice liver, 3 mg/kg i.p. daily for 6 days, four hours after last dose", "result": 10, "unit": "%"}, {"measurement": "PF-4 in comparison to the PBS control", "setting": "platelet factor-4 (PF-4)", "result": "reduction of PF-4"}]}, {"compound": "422140 (antisense eG*eT*eT*e[5mC]*eT*dG*d[5mC]*dA*dG*dG*dA*dG*d[5mC]*dG*dG*e[5mC]*e[5mC]*eT*eA*eA) [compound 422140]", "values": [{"measurement": "% Inhibition of human Factor 7 mRNA levels", "setting": "human Factor 7 mRNA [1]", "result": 74, "unit": "%"}, {"measurement": "percent inhibition of Factor 7 mRNA, relative to untreated control cells", "setting": "human Factor 7 mRNA [2]; 3.125 μM", "result": 29, "unit": "%"}, {"measurement": "percent inhibition of Factor 7 mRNA, relative to untreated control cells", "setting": "human Factor 7 mRNA [2]; 6.25 μM", "result": 34, "unit": "%"}, {"measurement": "percent inhibition of Factor 7 mRNA, relative to untreated control cells", "setting": "human Factor 7 mRNA [2]; 12.5 μM", "result": 51, "unit": "%"}, {"measurement": "percent inhibition of Factor 7 mRNA, relative to untreated control cells", "setting": "human Factor 7 mRNA [2]; 25 μM", "result": 64, "unit": "%"}, {"measurement": "percent inhibition of Factor 7 mRNA, relative to untreated control cells", "setting": "human Factor 7 mRNA [2]; 50 μM", "result": 69, "unit": "%"}, {"measurement": "percent inhibition of Factor 7 mRNA, relative to untreated control cells", "setting": "human Factor 7 mRNA [2]; 100 μM", "result": 77, "unit": "%"}, {"measurement": "percent inhibition of Factor 7 mRNA, relative to untreated control cells", "setting": "human Factor 7 mRNA [3]; 3.125 nM", "result": 18, "unit": "%"}, {"measurement": "percent inhibition of Factor 7 mRNA, relative to untreated control cells", "setting": "human Factor 7 mRNA [3]; 12.5 nM", "result": 49, "unit": "%"}, {"measurement": "percent inhibition of Factor 7 mRNA, relative to untreated control cells", "setting": "human Factor 7 mRNA [3]; 25 nM", "result": 64, "unit": "%"}, {"measurement": "percent inhibition of Factor 7 mRNA, relative to untreated control cells", "setting": "human Factor 7 mRNA [3]; 50 nM", "result": 74, "unit": "%"}, {"measurement": "percent inhibition of Factor 7 mRNA, relative to untreated control cells", "setting": "human Factor 7 mRNA [3]; 100 nM", "result": 74, "unit": "%"}, {"measurement": "percent inhibition of Factor 7 mRNA, relative to untreated control cells", "setting": "human Factor 7 mRNA [3]", "result": 35, "unit": "%"}]}]}
